We go through 16 compounds from ChEMBL document CHEMBL4390677, “Topographical Mapping of Isoform-Selectivity Determinants for J-Channel-Binding Inhibitors of Sphingosine Kinases 1 and 2” (J Med Chem, 2019).

pIC50, pKi: −log10 of the molar value.

The target in assay [1] is T1, Sphingosine kinase 2 (Homo sapiens, UniProt Q9NRA0).
T1 sequence (Q9NRA0 whole entry): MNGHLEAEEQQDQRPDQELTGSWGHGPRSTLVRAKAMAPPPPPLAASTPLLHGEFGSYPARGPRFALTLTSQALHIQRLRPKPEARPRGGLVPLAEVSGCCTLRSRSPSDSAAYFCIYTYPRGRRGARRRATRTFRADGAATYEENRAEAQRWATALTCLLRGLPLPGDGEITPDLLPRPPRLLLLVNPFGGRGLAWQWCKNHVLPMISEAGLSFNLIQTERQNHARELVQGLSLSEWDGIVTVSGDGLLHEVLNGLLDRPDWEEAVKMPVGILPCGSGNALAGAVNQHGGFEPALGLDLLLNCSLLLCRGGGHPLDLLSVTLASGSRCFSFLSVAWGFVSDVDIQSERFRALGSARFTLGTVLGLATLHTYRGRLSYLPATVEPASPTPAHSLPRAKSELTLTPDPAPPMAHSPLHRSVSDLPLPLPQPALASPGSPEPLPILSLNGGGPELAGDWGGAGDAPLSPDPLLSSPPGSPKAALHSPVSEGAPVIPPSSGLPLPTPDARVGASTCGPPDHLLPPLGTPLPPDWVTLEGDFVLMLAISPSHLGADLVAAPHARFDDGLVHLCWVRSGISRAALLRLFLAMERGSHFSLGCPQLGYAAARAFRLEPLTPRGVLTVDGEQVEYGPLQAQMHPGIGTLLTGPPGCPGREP
The assay can be described thus: Inhibition of recombinant human full-length N-terminal His-tagged SK2 expressed in baculovirus infected Sf9 insect cells using Sph as substrate measured after 30 mins in presence of [gamma32P]ATP by Cerenkov counting analysis.

In another assay the target is Sphingosine kinase 1 (Homo sapiens, UniProt Q9NYA1). The assay can be described thus: Inhibition of GFP-tagged SK1 (unknown origin) expressed in HEK293 cells using Sph as substrate measured after 30 mins in presence of [gamma32P]ATP by Cerenkov counting analysis. It is filed as cell-based.
The species entered for the next assay is Homo sapiens. The assay can be described thus: Selectivity index, ratio of IC50 for GFP-tagged SK1 (unknown origin) expressed in HEK293 cells to IC50 for purified SK2 (unknown origin).
Assay [2] deals with T1, Sphingosine kinase 2. The assay can be described thus: Inhibition of SK2 (unknown origin).
The target of assay [3] is T2, Sphingosine kinase 2 (Homo sapiens) (UniProt Q9NRA0).
T2 sequence (whole entry): T1 sequence (Q9NRA0 whole entry)
The assay can be described thus: Inhibition of recombinant human full-length N-terminal His-tagged SK2 expressed in baculovirus infected Sf9 insect cells at 3 uM using Sph as substrate measured after 30 mins in presence of [gamma32P]ATP by Cerenkov counting analysis relative to control.

Sphingosine kinase 1, sequence (Q9NYA1 whole entry): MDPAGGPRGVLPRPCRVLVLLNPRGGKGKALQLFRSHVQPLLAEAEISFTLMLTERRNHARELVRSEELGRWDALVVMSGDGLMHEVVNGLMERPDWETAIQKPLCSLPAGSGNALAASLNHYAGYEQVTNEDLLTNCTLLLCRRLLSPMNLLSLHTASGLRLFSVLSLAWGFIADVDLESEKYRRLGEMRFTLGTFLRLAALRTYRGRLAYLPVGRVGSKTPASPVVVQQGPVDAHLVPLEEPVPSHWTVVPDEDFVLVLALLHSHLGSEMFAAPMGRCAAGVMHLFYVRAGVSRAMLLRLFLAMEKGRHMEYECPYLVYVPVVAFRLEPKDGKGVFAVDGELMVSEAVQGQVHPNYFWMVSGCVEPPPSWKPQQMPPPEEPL

Regarding `N#Cc1ccc(COc2cccc(OCc3ccc(CN4CCC[C@@H]4CO)cc3)c2)cc1`, the pIC50 is 5.95 at Sphingosine kinase 2 [1] and less than 5.52 on Sphingosine kinase 1. In addition, the Ratio IC50 in the assay filed under Homo sapiens is greater than 2.7.
On Sphingosine kinase 2 [2], `Oc1ccc(Nc2nc(-c3ccc(Cl)cc3)cs2)cc1` had a negative-log Ki (pKi) of 5.17.
For the compound `OC[C@H]1CCCN1Cc1ccc(COc2cccc(SCc3ccc(F)cc3)c2)cc1`, the pIC50 on Sphingosine kinase 2 [1] was 7.77; on Sphingosine kinase 1 it was 6.12. Further, the Ratio IC50 in the assay listed under Homo sapiens amounted to 45.
For `O=S(=O)(Oc1cccc(OCc2ccc(CN3CCC[C@@H]3CO)cc2)c1)c1ccccc1`, the pIC50 is 6.04 at Sphingosine kinase 2 [1] and 7.96 at Sphingosine kinase 1. The Ratio IC50 in the assay filed under Homo sapiens was 0.012.
With `OC[C@H]1CCCN1Cc1ccc(COc2cccc(OCc3cccc(F)c3)c2)cc1`, the results for the pIC50 at Sphingosine kinase 2 [1] and on Sphingosine kinase 1 were 6.84 and 8.05, respectively. Besides, in the assay filed under Homo sapiens, the Ratio IC50 stood at 0.063.
Take `OC[C@H]1CCCN1Cc1ccc(COc2cccc(OCc3ccc(F)cc3)c2)cc1`: the pIC50 is 7.31 at Sphingosine kinase 2 [1] and 6.77 at Sphingosine kinase 1. In addition, the Ratio IC50 in the assay listed under Homo sapiens worked out at 3.5.
`OC[C@H]1CCCN1Cc1ccc(COc2cccc(OCc3ccccc3F)c2)cc1`: the pIC50 is 7.26 on Sphingosine kinase 2 [1] and 7.39 on Sphingosine kinase 1. Besides, the Ratio IC50 in the assay filed under Homo sapiens worked out at 0.75.
Take `OC[C@H]1CCCN1Cc1ccc(COc2cccc(OCc3ccc(Cl)cc3)c2)cc1`: the pIC50 at Sphingosine kinase 2 [1] is 7.39; at Sphingosine kinase 1, 5.38. The Ratio IC50 in the assay filed under Homo sapiens was 101.
Consider `O=S(=O)(Cc1cccc(OCc2ccc(CN3CCC[C@@H]3CO)cc2)c1)c1ccccc1`, for which the inhibition in assay [3] is 16%. On Sphingosine kinase 1, the negative logarithm of the IC50 (pIC50) was 6.84. In addition, the Ratio IC50 in the assay filed under Homo sapiens is less than 0.048.
In the case of `OC[C@H]1CCCN1Cc1ccc(COc2cccc(OCc3ccccc3)c2)cc1`, the values for the negative-log IC50 (pIC50) on Sphingosine kinase 2 [1] and on Sphingosine kinase 1 were 7.80 and 7.85, respectively. Also, in the assay filed under Homo sapiens, the Ratio IC50 came out at 0.88.
As to `OC[C@H]1CCCN1Cc1ccc(COc2cccc(CCc3ccccc3)c2)cc1`, the negative-log IC50 (pIC50) on Sphingosine kinase 2 [1] is 7.46; on Sphingosine kinase 1, 7.59. In addition, the Ratio IC50 in the assay listed under Homo sapiens amounted to 0.74.
Turning to `OC[C@H]1CCCN1Cc1ccc(COc2cccc(SCc3ccc(Cl)cc3)c2)cc1`, the pIC50 was 7.51 at Sphingosine kinase 2 [1] and 5.63 on Sphingosine kinase 1. Further, in the assay listed under Homo sapiens, the Ratio IC50 amounted to 76.
Taken in the same sequence, the figures for `OC[C@H]1CCCN1Cc1ccc(COc2cccc(SCc3ccccc3)c2)cc1` were 7.59, 6.86 and 5.3.
As for `COc1ccc(COc2cccc(OCc3ccc(CN4CCC[C@@H]4CO)cc3)c2)cc1`, the values for the negative logarithm of the IC50 (pIC50) on Sphingosine kinase 2 [1] and on Sphingosine kinase 1 were 6.92 and less than 5.52, respectively. Also, the Ratio IC50 in the assay listed under Homo sapiens is greater than 25.
In the same order, the values of `OC[C@H]1CCCN1Cc1ccc(COc2cccc(OCc3cccc(Cl)c3)c2)cc1` are 6.39, 7.36 and 0.11.
Taken in the same sequence, the figures for `OC[C@H]1CCCN1Cc1ccc(COc2cccc(OCc3ccccc3Cl)c2)cc1` were 6.82, 7.41 and 0.26.

Broadly, the pIC50 is −log10 of the IC50, conventionally taken in molar units. As a reminder, the pKi is the Ki on a negative log10 scale, so that one unit is a factor of ten. Low readings indicate a large Ki, high ones a small Ki. The term inhibition denotes the share of the control response that was lost under treatment.
